{
  "source": "patent US8022036B2",
  "about": "“Use of thymosin alpha 1 for the treatment of immunological diseases” (Sigma-Tau Industrie Farmaceutiche Riunite S.p.A., priority 2006, dated 2011)",
  "key": {"[1]": {"test_system": "GM-DCs or FL-DCs", "assay": "Phagocytosis of Aspergillus conidia by human GM- or FL-DCs", "assay_type": "cell-based", "text": "GM-DCs or FL-DCs were obtained from purified CD14+ monocytes from healthy donors or transplanted patients (1 month post-HSCT) cultured in Iscove's modified medium for 7-9 days, in the presence of rGM-CSF (Schering-Plough, Milan, Italy) and rIL-4 (Peprotech, Inalco, Milan, Italy) or FLT3-L (Immunex Corporation, Seattle, Wash.) (Blood. 2004; 103:4232-4239). DC recovery was between 20-30% reduced in cultures from transplanted patients. Murine GM-DCs or FL-DCs were obtained from bone marrow cells for 7-9 days, as described (Blood. 2004; 103:4232-4239). Thymosin alpha 1 and sThymosin alpha 1 were added to the cultures at 20 ng/mL. DCs (>99% CD11c+ consisting of 90-95% CD8-, 5-10% CD8+, and 1-5% B220+ cells) were purified from spleens (spDCs) by magnetic-activated sorting using CD11c MicroBeads and MidiMacs (Miltenyi Biotech). DC populations were further separated into CD8−, CD8+ and B220+ fractions by means of CD8 or B220 MicroBeads (Miltenyi Biotech). DCs were pulsed in serum-free Iscove medium for 24 hours with live unopsonized Aspergillus conidia or Zymosan from Saccharomyces cerevisiae (Sigma) or CpG-ODN 2006 as described.7 Phagocytosis was done as described (Blood. 2004; 103:4232-4239). Photographs were taken using a high Resolution Microscopy Color Camera AxioCam, using the AxioVision Software Rel. 3.1 (Carl Zeiss, Milan, Italy).\n(B) Phagocytosis of conidia by GM- or FL-DCs exposed (+) or not (−) to Thymosin alpha 1 from seven recipients of Tcell depleted haploidentical HSCT. The data are the means±SE and expressed as % internalization (numbers within figures). (*) P<0.05, Thymosin alpha 1-treated versus untreated cells."}, "[2]": {"test_system": "A. fumigatus", "assay": "Aspergillosis in experimental HSCT after adoptive transfer of fungus-pulsed DCs", "assay_type": "in vivo, mouse", "method": "Human peripheral blood mononuclear cells were obtained from healthy donors and seven recipients of T-cell depleted haploidentical HSCT, upon written informed consent. Donor typing, engraftment and GVHD were assessed as described (Blood. 2005; 106; 4397-4406). Experimental HSCT model Lethally irradiated (8 Gy) C57BL6 mice were infused with T cell-depleted bone marrow cells from BALB/c mice (Blood. 2003; 102:3807-3814). For GVHD, purified donor CD3+ T splenocytes were added to the graft (Science. 2002; 295:2097-2100). Individual mice were graded weekly from 0-2 for each GVHD criterion (see legend to FIG. 3) without knowledge of treatment group.\nThe strain of A. fumigatus, the culture conditions and infection were as described in Blood. 2004; 103:4232-4239. Mice were anesthetized with 2.5% avertin (Sigma Chemical Co, St. Louis, Mo.). Quantification of fungal growth in the lungs was done by the chitin assay and results are expressed as micrograms of glucosamine per pair of lungs, and PAS staining was done as described in Blood. 2004; 103:4232-4239.\nMice received twice intraperitoneal injections of DCs, at weekly interval, starting a day after HSCT and infected a week after the last DC administration. Three days later, lung homogenates, CD4+ T cells (>98% on FACS analysis), CD4+CD25− (>98%) or CD4+CD25+ (>82%) purified with the specific Miltenyi Biotec isolation kits were assessed for pattern of pro- and anti-inflammatory (TNF-a/IL-10 in lung homogenates), Th1 (IFN-γ) or Th2 (IL-4) cytokine production by CD4+ cells stimulated with Aspergillus-pulsed DCs (Blood. 2003; 102:3807-3814) frequency of CD25+ IL-10^+ TGF-β+ T reg cells, lymphoproliferation and gene expression by RT-PCR. For proliferation, TLN CD4+ T lymphocytes were plated (10^5 cells/well) with 10^5 cells/well irradiated allogeneic splenocytes or autologous spDCs pulsed with conidia or 10 μg/mL Con A for five days before H^3-thymidine labeling.\nLethally irradiated C57BL/6 mice received=2×10^6 T cell-depleted allogeneic bone marrow cells from BALB/c mice 2 wk before the intratracheal injection of 2×10^8/80 μl saline Aspergillus conidia. One and seven days after transplantation, mice received Aspergillus-pulsed GM- or FL-DCs grown in Thymosin alpha 1, intraperitoneally.\nResistance to infection was assessed in terms of MST (median survival time in days) and fungal growth in the lung ([…] glucosamine content, bars indicating standard errors) 3 days after infection or at the time of death (A). […] The degree of systemic GVHD was assessed by a scoring system that sums changes in five clinical parameters: weight loss, posture (hunching), activity, fur texture, and skin integrity (maximum index=10). […]"}, "[3]": {"test_system": "lymphosarcoma cells", "settings": "BALB/c mice; cited from earlier work"}},
  "note": "No end group written: not given here.",
  "data": [
    {"substance": "Thymosin alpha 1: naturally occurring thymic peptide; supplied as purified, endotoxin-free sterile lyophilized acetylated polypeptide from SciClone Pharmaceuticals (Ac-SDAAVDTSSEITTKDLKEKKEVVEEAEN; UniProt P06454 2-29, looked up)", "values": [
      {"measurement": "phagocytosis of GM- and FL-DCs derived from patients", "setting": "[1]; patients one month after transplantation", "result": "promoted the phagocytosis"},
      {"measurement": "phagocytosis in GM-DCs", "setting": "[1]; with Thymosin alpha 1 (from 30% without)", "result": 56, "unit": "%"},
      {"measurement": "phagocytosis in FL-DCs", "setting": "[1]; with Thymosin alpha 1 (from 32% without)", "result": 58, "unit": "%"},
      {"measurement": "survival to infection in the presence of donor T cells", "setting": "[2]; donor T cells plus Thymosin alpha 1-treated GM-DCs", "result": "survived infection"},
      {"measurement": "local inflammatory cell recruitment and reaction in the lungs (histopathology)", "setting": "[2]; mice infused with Thymosin alpha 1-treated GM-DCs, 3 days after infection", "result": "few healing infiltrates of inflammatory cells with no evidence of bronchial wall damage and inflammatory response and low"},
      {"measurement": "vaccinating potential of FL-DCs", "setting": "[2]; transfer of Thymosin alpha 1-treated FL-DCs", "result": "would not affect the vaccinating potential of FL-DCs"},
      {"measurement": "protection from aspergillosis (survival, fungal growth)", "setting": "[2]; transfer of Thymosin alpha 1-treated GM-DCs, intraperitoneally", "result": "complete protection"},
      {"measurement": "local sarcoma growth, liver and lung metastases of lymphosarcoma cells", "setting": "[3]", "result": "significantly reduced"}
    ]}
  ]
}
